Experiment [1] concerns the target T1, human recombinant 5-lipoxygenase (Homo sapiens, UniProt P09917).
T1 construct: purchased Cayman 60402
T1 sequence (P09917 1-674): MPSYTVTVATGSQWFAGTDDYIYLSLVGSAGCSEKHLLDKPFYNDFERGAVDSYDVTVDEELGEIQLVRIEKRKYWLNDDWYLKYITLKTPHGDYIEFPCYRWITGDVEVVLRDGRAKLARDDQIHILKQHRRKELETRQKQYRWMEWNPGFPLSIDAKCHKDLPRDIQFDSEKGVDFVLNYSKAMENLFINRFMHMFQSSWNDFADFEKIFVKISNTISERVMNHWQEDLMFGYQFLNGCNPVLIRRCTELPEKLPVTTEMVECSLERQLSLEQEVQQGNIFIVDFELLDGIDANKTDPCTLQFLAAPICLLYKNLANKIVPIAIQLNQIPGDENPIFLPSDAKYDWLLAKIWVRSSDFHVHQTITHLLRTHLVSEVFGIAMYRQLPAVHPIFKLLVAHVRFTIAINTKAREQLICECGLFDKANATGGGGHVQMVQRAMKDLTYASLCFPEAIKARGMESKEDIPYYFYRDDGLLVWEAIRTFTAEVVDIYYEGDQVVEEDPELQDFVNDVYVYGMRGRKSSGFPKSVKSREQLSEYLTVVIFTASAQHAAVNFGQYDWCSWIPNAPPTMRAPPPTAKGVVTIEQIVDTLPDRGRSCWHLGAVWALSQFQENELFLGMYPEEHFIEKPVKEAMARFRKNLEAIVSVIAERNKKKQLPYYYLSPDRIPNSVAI
The experiment is described as follows: 5-Lipoxygenase enzyme assay. The class given is biochemical. As to conditions: 70 μM arachidonic acid, pH 7.4, 10 minute incubation; read-out: IC50, inhibition of 5-Lipoxygenase. An excerpt:
(§1) In vitro evaluation of the ability of a composition to inhibit the enzymes 5-lipoxygenase, 15-lipoxygenase, or 12/15 lipoxygenase as described in Walidge, N. B. et al Anal. Biochem., 231: 354-358 (1995) using a high throughput colorimetric method; as well as in vitro evaluation of inhibiting LTB4 is described in Examples.
This procedure was used for measuring the enzymatic activity of human recombinant 5-lipoxygenase using a colorimetric method based on the ferric oxidation of xylenol orange.
• 96 well flat bottom microfilter plates (VWR, Catalog #62402-933 9295) • Lipoxygenase screening assay buffer (Cayman, Catalog #760710) • Human recombinant 5-lipoxygenase (Cayman, Catalog #60402) • Arachidonic Acid (Sigma, Catalog #A3555) • Xylenol orange tetrasodium salt (Aldrich, Catalog #227854) • Iron (II) sulfate heptahydrate (Sigma, Catalog #F7002) • Sulfuric acid (95-98%) [18M]—Methanol Procedure
(§2) Human recombinant 5-lipoxygenase (Cayman Cat #60402) was used in this assay. The test compound and/or vehicle was added to 0.51-1 5-lipoxygenase in 50 mM Tris-HCl buffer, pH 7.4. The reaction was initiated by addition of 70 μM arachidonic acid in Tris-HCl buffer, pH 7.4, and terminated after a 10 minute incubation at room temperature by addition of FOX reagent (25 mM sulphuric acid, 100 μM xylenol orange, 100 μM iron (II) sulphate, methanol:water 9:1). The yellow color of acidified xylenol orange was converted to a blue color by the lipid hydroperoxide-mediated oxidation of Fe 2+ ions and the interaction of the resulting Fe 3+ ions with the dye. The complex was allowed to form during a 1 hour incubation at room temperature with shaking. Absorbance of the Fe 3+ complex was then measured at […] using a spectrophotometer.
(§3) Negative controls contained enzyme during the incubation step but substrate was not added until after the FOX reagent.
Compounds were screened at 5 concentrations in triplicate starting at 10 μM

Experiment [2] deals with release of the leukotriene LTB4 from MPRO cell line. Briefly: LTB4 assay (competitive ELISA). The class given is cell-based. The conditions noted are these: Mus musculus; 1 μM calcium ionophore A23187, 1 hour; read-out: EC50, inhibition of LTB4 production. An excerpt: This procedure was used for measuring the release of the leukotriene LTB4 from a neutrophil cell line using a competitive ELISA technique.
• MPRO cell line (ATCC, Catalog #CRL-11422) • Calciumionophore (A23187) (Sigma, Catalog #C7522) • Nordihydroguaiaretic acid (NDGA) (BioMol, Catalog #E1101-0001) • Retinoic Acid (all-trans) (ATRA) (Sigma, Catalog #95152) • Sterile, tissue-culture treated 96-well plates (Corning, Catalog #3614) Materials for LTB4 ELISA • Precoated (Mouse Anti-Rabbit IgG) EIA 96 Well Strip Plates (Cayman, Catalog #400004) • Leukotriene B4 AChE Tracer (Cayman Catalog #420110) • Leukotriene B4 EIA Antiserum (Cayman Catalog #420112) • Ellman's Reagent (Cayman Catalog #400050) • EIA Buffer Concentrate (10×) (Cayman Catalog #400060) • Wash Buffer Concentrate (400×) (Cayman Catalog #400062) • Plastic plate covers (Cayman Catalog #400012) Procedure
A mouse promyelocytic cell line (MPRO) was used in this assay. These cells are committed immature neutrophils that can be differentiated into mature neutrophils by treatment with 10 μM all-trans retinoic acid for 72 hours
Following 72 hours of differentiation, cells were stimulated with 1 μM of a calcium ionophore (A23187) in the presence or absence of test compound or vehicle for 1 hour at 370 C. After this time, supernatant was removed from the cells and the LTB4 levels were determined following manufacturer's instructions, using a Leukotriene B4 EIA kit from Cayman (Cat #520111)
The negative controls were media samples from differentiated but unstimulated cells.
The compounds were screened at 5 concentrations in quadruplicate starting at 10 μM

For experiment [3], the target named is T2, porcine leukocyte 12/15-lipoxygenase (Sus scrofa, UniProt P16469).
T2 construct: purchased Cayman 60300
T2 sequence (P16469 1-663): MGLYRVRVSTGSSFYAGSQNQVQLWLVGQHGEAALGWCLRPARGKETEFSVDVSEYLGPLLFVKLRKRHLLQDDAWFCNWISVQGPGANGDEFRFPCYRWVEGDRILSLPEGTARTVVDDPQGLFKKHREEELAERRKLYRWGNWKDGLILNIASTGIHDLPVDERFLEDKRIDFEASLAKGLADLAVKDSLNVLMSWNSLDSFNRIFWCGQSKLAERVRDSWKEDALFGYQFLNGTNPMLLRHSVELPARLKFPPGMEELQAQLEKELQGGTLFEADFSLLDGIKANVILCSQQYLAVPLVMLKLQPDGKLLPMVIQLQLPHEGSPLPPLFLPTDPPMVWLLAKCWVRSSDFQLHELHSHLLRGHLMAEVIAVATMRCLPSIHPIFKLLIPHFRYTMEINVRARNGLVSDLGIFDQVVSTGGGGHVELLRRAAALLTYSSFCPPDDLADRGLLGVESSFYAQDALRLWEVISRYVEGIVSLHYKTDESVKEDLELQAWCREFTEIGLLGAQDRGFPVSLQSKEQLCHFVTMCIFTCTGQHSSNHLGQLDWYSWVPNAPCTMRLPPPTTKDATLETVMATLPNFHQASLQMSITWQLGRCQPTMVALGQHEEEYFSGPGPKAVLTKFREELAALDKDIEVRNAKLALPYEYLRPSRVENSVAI
The experiment is described as follows: 12/15-Lipoxygenase enzyme assay. Type of experiment: biochemical. As to conditions: 70 μM arachidonic acid, pH 7.4, 10 minute incubation; read-out: IC50, inhibition of 12/15-Lipoxygenase.
Source text: as §1
This procedure was used for measuring the enzymatic activity of porcine leukocyte 12/15-lipoxygenase using a colorimetric method based on the ferric oxidation of xylenol orange.
• 96 well flat bottom microfilter plates (VWR, Catalog #62402-933 9295) • Lipoxygenase screening assay buffer (Cayman, Catalog #760710) • Porcine leukocyte 12/15-lipoxygenase (Cayman, Catalog #60300) • Arachidonic Acid (Sigma, Catalog #A3555) • Xylenol orange tetrasodium salt (Aldrich, Catalog #227854) • Iron (II) sulfate heptahydrate (Sigma, Catalog #F7002) • Sulfuric acid (95-98%) [18M] • Methanol Procedure
as §2, with “Porcine Leukocyte 12/15-lipoxygenase” for “Human recombinant 5-lipoxygenase”, “#60300)” for “#60402)”, “Test” for “The test”, “1.3 U 12/15-lipoxygenase” for “0.51-1 5-lipoxygenase”
as §3
Compounds are screened at 5 concentrations in triplicate starting at 10 μM

The test system of experiment [4] is dopaminergic neuronal cell line. The experiment is described as follows: High glutamate-induced oxidative stress assay (HGOS). Type of experiment: cell-based. As to conditions: Mus musculus; 30 mM glutamate, 16 hrs; read-out: EC50, protection against HGOS cell injury and cell death. The text has this:
Protection against redox stress can be evaluated in cell culture using high glutamate induced oxidative stress (HGOS) in mouse dopaminergic cell lines. The cytotoxic effect of glutamate is not due to excitotoxicity, as this cell line is devoid of inotropic glutamate receptors. Rather, the glutamate-induced toxicity of dopaminergic cells is associated with an inhibition of cystine transport which subsequently leads to depletion of intracellular glutathione (GSH) levels (Murphy T. H., et al. Neuron 2, 1547-1558, 1989), activation of neuronal 12-lipoxygenase (Li, Y. et al., Neuron 19, 453-463, 1997), increased ROS production (Tan S. et al., J. Cell Biol. 141, 1423-1432, 1998) and elevated intracellular Cat^2+ (Li, Y. et al., see supra). Some molecules were measured for their ability to protect cells against glutamate-induced stress and the assay is detailed in Examples.
This procedure was used to induce high glutamate-induced oxidative stress (HGOS) in a dopaminergic neuronal cell line. Using this assay the potency and efficacy of test articles against HGOS neuronal cell injury and cell death was established in a high throughput manner.
• Dopaminergic neuronal cell lines • DMEM-No Glucose (Life Technologies Cat #11966-025) • L-glutamine (Life Technologies Cat #25030-081) • L-glutamic acid, monosodium salt (Sigma Cat #G5889) • D-glucose (Sigma Cat #G-6151) • 10×HBSS buffer (pH 7.4) (950 ml Pyrogen-free water, 2.44 g/L MgCl2.6H20, 3.73 g/L KCl, 59.58 g/L Hepes, 58.44 g/L NaCl, 1.36 g/L KH2PO4, 1.91 g/L CaCl2.2H2O and pH to […] with HCl) • Cell Tracker Green fluorescent dye (Molecular Probes, Cat #2925). Prepare a 5NM solution in pre-warmed HBSS just prior to use. • Sterile 96-well plates precoated with poly-D-lysine (Corning Catalog #3665) • 96-well deep well mother plate, DyNA Block 1000 (VWR Catalog #40002-008) Neuronal Cells
The cells were seeded into 96-well plates at a density of 2000 per well and left to grow for 72 hours in a 33° C. incubator with 5% CO2 in air atmosphere. The passage number of the cells for each assay experiment were no later than p11 in order to minimize experimental variation.
All compounds were dissolved in DMEM-No Glu containing 1 mM glucose, 30 mM glutamate and 1× Pen/Strep. DMEM-No Glu with 1 mM glucose and 1× P/S was used as the negative control, DMEM-No Glucose with 1 mM glucose, […] glutamate was used as a positive control and 100 NM Glutathione was added to the positive control as a standard. All of the procedures for this involving the making and dilution of compounds were performed using aseptic conditions and with minimal light.
The plates were removed from the incubator and examined under the microscope for morphological appearance and density. Using an aseptic technique and an 8-channel aspirator the media was carefully removed from the cells and replaced with 200 μI of 1×HBSS. This was done as quickly as possible to prevent the cells drying out. The plates were then placed in the humidified 37° C. incubators of the Biomek 2000 Side Loader. Four plates were washed at a time so as to minimize the time that the cells were sitting in 1×HBSS prior to addition of the compound test solution. Experimental Setup
The Beckman Biomek workstations were used to load the compounds and controls from the mother plates onto the cell plates that were prewashed with HBSS under sterile conditions. The plates were incubated in the upper HTS incubator at 37° C. in 5% CO2 for exactly 16 hrs. The following day, using the Beckman Biomek workstations, the plates were removed from the incubator. Using Cell Tracker Addition, the compounds were removed from the plates, washed once with […] of pre-warmed 1×HBSS and then 100 μL of 5 μM Cell Tracker Green was added to each well. The plates were incubated at 37° C. for 30 min to allow the dye to enter the cell and be cleaved by the esterases. […]

As for `Cc1c(C)c2c(c(-c3ccco3)c1O)CCC(C)(C)O2` [5-Furan-2-yl-2,2,7,8-tetramethyl-chroman-6-ol], the IC50 in experiment [1] and in experiment [3] was under 1000 nM each time. Moreover, in experiment [2], the 50% effective concentration (EC50) was under 1000 nM.

On to `Cc1c(C)c2c(c(-c3cccc([N+](=O)[O-])c3)c1O)CCC(C)(C)O2` [2,2,7,8-Tetramethyl-5-(3-nitro-phenyl)-chroman-6-ol], for which the EC50 in experiment [2] is under 1000 nM.

On to `Cc1c(C)c2c(c(C)c1O)CCC(C)(C=C(Cl)Cl)O2` (stereo not drawn) [2-(2,2-Dichloro-vinyl)-2,5,7,8-tetramethyl-chroman-6-ol], for which the IC50 in experiment [1] and in experiment [3] was under 1000 nM each time.

With `Cc1cc(C2(C)CCc3c(C)c(O)c(C)c(C)c3O2)c(C)s1` (stereo not drawn) [2-(2,5-Dimethyl-thiophen-3-yl)-2,5,7,8-tetramethyl-chroman-6-ol], the IC50 in experiment [1] and in experiment [3] was under 1000 nM throughout. The EC50 in experiment [2] was under 1000 nM.

Take `Cc1cc(C2(C)CCc3cc(O)c(C)c(C)c3O2)c(C)s1` (stereo not drawn) [2-(2,5-Dimethyl-thiophen-3-yl)-2,7,8-trimethyl-chroman-6-ol]: the IC50 in experiment [1] was under 1000 nM. In experiment [2], the EC50 was under 1000 nM.

`Cc1c(C)c2c(c(-c3ccc(C(=O)O)cc3)c1O)CCC(C)(C)O2` [4-(6-Hydroxy-2,2,7,8-tetramethyl-chroman-5-yl)-benzoic acid]: the concentration for a half-maximal effect (EC50) in experiment [4] is under 5000 nM; in experiment [2], under 1000 nM.

As to `Cc1c(C)c2c(c(-c3cccnc3)c1O)CCC(C)(C)O2` [2,2,7,8-Tetramethyl-5-pyridin-3-yl-chroman-6-ol], the EC50 in experiment [4] is under 5000 nM; in experiment [2], under 1000 nM.

(Values after patent publication US8791155B2, “Chroman derivatives” (Edison Pharmaceuticals, Inc., priority 2003, dated 2014).)
